# Assay results published in US20260242419A1, “A CYCLIC PEPTIDE FOR TRAPPING INTERLEUKIN-1 BETA” (Merck Sharp & Dohme LLC, priority 2023, published 2026).
# Starred links: 1 amine or outer side, 2 acyl side, 3 side chain; linkers in the order of their positions; H or OH if unused. Non-standard residues stand in square brackets, D forms with d. Residues, ends and D or L forms follow the SMILES beside them. dPro(4R-(4-pyridylmethyl)) = O=C(O)[C@H]1C[C@@H](Cc2ccncc2)CN1; Trp(βS-Me,4-F) = C[C@@H](c1c[nH]c2cccc(F)c12)[C@H](N)C(=O)O; Bip(4'-COOH) = N[C@@H](Cc1ccc(-c2ccc(C(=O)O)cc2)cc1)C(=O)O; dPro(4R-Bzl(4-F)) = O=C(O)[C@H]1C[C@@H](Cc2ccc(F)cc2)CN1; dPro(3S-(4-F-Bn)) = O=C(O)[C@@H]1NCC[C@@H]1Cc1ccc(F)cc1; Ala(morpholin-4-yl) = N[C@@H](CN1CCOCC1)C(=O)O; Ala(pyrimidin-5-yl) = N[C@@H](Cc1cncnc1)C(=O)O; Phe(4-COOH) = N[C@@H](Cc1ccc(C(=O)O)cc1)C(=O)O; Phe(4-tBu) = CC(C)(C)c1ccc(C[C@H](N)C(=O)O)cc1; X34 = C[N+](C)(C)CC[C@H](N[*:1])C(=O)[*:2]; Pro(cis-4-F) = O=C(O)[C@@H]1C[C@H](F)CN1; X45 = Cc1cc(C[C@H](N[*:1])C(=O)[*:2])no1; Ala(4-THP) = N[C@@H](CC1CCOCC1)C(=O)O; X38 = O=C([C@H](Cc1ncco1)N[*:1])[*:2]; X6 = O=C([C@H](Cc1ccncn1)N[*:1])[*:2]; AEF = NCCOc1ccc(C[C@H](N)C(=O)O)cc1; d(αMeD) = C[C@@](N)(CC(=O)O)C(=O)O; h4Pal = N[C@@H](CCc1ccncc1)C(=O)O; 4Pal = N[C@@H](Cc1ccncc1)C(=O)O; Dab = NCC[C@H](N)C(=O)O; Aib = CC(C)(N)C(=O)O
# Biological target: T1, IL-1β (Homo sapiens, UniProt P01584)
# T1 construct: purchased BioLegend 579404
# T1 sequence (P01584 117-269): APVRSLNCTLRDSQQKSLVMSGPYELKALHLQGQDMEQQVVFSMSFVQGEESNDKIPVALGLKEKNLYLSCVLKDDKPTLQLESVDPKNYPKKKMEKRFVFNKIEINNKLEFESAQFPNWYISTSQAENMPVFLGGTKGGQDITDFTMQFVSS
# Assay: IL-6 assay in MRC5 cells: inhibition of IL-1β induced IL-6 secretion (AlphaLISA)
# Format: cell-based
# Settings: inhibition of IL-1β induced IL-6 secretion in MRC5 cells; read-out: MRC5 IC50
# Summary of the method: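 Compound was pre-incubated 1 h at ambient temperature with recombinant human IL-1β at 2λ EC80 before adding human lung fibroblast MRC5 cells (3000/well) in EMEM with 0.025% BSA. After overnight culture at 37 °C, 5% CO2, secreted IL-6 in conditioned medium was measured by AlphaLISA; IC50 from 4-parameter logistic fits.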
row,Compound,IC50 [nM]
1,"CC(=O)NCCOc1ccc(C[C@@H]2NC(=O)[C@H]3C[C@@H](Cc4ccncc4)CN3C(=O)CNC(=O)[C@H](CCN)NC(=O)[C@H](CCC(N)=O)NC(=O)[C@H](Cc3ccc(O)cc3)NC(=O)C(C)(C)NC(=O)[C@H](Cc3c[nH]c4ccccc34)NC(=O)[C@H](CCC(=O)O)NC(=O)C(C)(C)NC(=O)[C@H]([C@@H](C)c3c[nH]c4cccc(F)c34)NC(=O)[C@@H]3C[C@H](F)CN3C(=O)CNC(=O)[C@H](Cc3ccc(C(=O)O)cc3)NC(=O)[C@H](Cc3ccncc3)NC2=O)cc1 [Example 310] (cyclo([AEF](Ac)[4Pal][Phe(4-COOH)]G[Pro(cis-4-F)][Trp(βS-Me,4-F)][Aib]EW[Aib]YQ[Dab]G[dPro(4R-(4-pyridylmethyl))]))",0.017
2,"C[C@@H](c1c[nH]c2cccc(F)c12)[C@@H]1NC(=O)[C@@H]2C[C@H](F)CN2C(=O)CNC(=O)[C@H](Cc2ccc(C(=O)O)cc2)NC(=O)[C@H](Cc2ccncc2)NC(=O)[C@H](Cc2ccc(C(C)(C)C)cc2)NC(=O)[C@H]2C[C@@H](Cc3ccncc3)CN2C(=O)CNC(=O)[C@H](CCN)NC(=O)[C@H](CCC(N)=O)NC(=O)[C@H](Cc2cncnc2)NC(=O)C(C)(C)NC(=O)[C@H](Cc2c[nH]c3ccccc23)NC(=O)[C@H](CCC(=O)O)NC(=O)C(C)(C)NC1=O [Example 311] (cyclo([Phe(4-tBu)][4Pal][Phe(4-COOH)]G[Pro(cis-4-F)][Trp(βS-Me,4-F)][Aib]EW[Aib][Ala(pyrimidin-5-yl)]Q[Dab]G[dPro(4R-(4-pyridylmethyl))]))",0.017
3,"C[C@@H](c1c[nH]c2cccc(F)c12)[C@@H]1NC(=O)[C@@H]2C[C@H](F)CN2C(=O)CNC(=O)[C@H](Cc2ccc(C(=O)O)cc2)NC(=O)[C@H](Cc2ccncc2)NC(=O)[C@H](Cc2ccc(-c3ccc(C(=O)O)cc3)cc2)NC(=O)[C@H]2[C@@H](Cc3ccc(F)cc3)CCN2C(=O)CNC(=O)[C@H](CCN)NC(=O)[C@H](CCC(N)=O)NC(=O)[C@H](Cc2ccncn2)NC(=O)C(C)(C)NC(=O)[C@H](Cc2c[nH]c3ccccc23)NC(=O)[C@H](CCC(=O)O)NC(=O)C(C)(C)NC1=O [Example 312] (cyclo([Bip(4'-COOH)][4Pal][Phe(4-COOH)]G[Pro(cis-4-F)][Trp(βS-Me,4-F)][Aib]EW[Aib][X6]Q[Dab]G[dPro(3S-(4-F-Bn))]))",0.017
4,"C[C@@H](c1c[nH]c2cccc(F)c12)[C@@H]1NC(=O)[C@@H]2C[C@H](F)CN2C(=O)CNC(=O)[C@H](Cc2ccc(C(=O)O)cc2)NC(=O)[C@H](Cc2ccncc2)NC(=O)[C@H](Cc2ccc(-c3ccc(C(=O)O)cc3)cc2)NC(=O)[C@H]2C[C@@H](Cc3ccc(F)cc3)CN2C(=O)CNC(=O)[C@H](CCN)NC(=O)[C@H](CCC(N)=O)NC(=O)[C@H](CC2CCOCC2)NC(=O)[C@@](C)(CC(=O)O)NC(=O)[C@H](Cc2c[nH]c3ccccc23)NC(=O)[C@H](CO)NC(=O)C(C)(C)NC1=O [Example 313] (cyclo([Bip(4'-COOH)][4Pal][Phe(4-COOH)]G[Pro(cis-4-F)][Trp(βS-Me,4-F)][Aib]SW[d(αMeD)][Ala(4-THP)]Q[Dab]G[dPro(4R-Bzl(4-F))]))",0.015
5,"C[C@@H](c1c[nH]c2cccc(F)c12)[C@@H]1NC(=O)[C@@H]2C[C@H](F)CN2C(=O)CNC(=O)[C@H](Cc2ccc(C(=O)O)cc2)NC(=O)[C@H](Cc2ccncc2)NC(=O)[C@H](Cc2ccc(-c3ccc(C(=O)O)cc3)cc2)NC(=O)[C@H]2C[C@@H](Cc3ccc(F)cc3)CN2C(=O)CNC(=O)[C@H](CCN)NC(=O)[C@H](CCC(N)=O)NC(=O)[C@H](CC[N+](C)(C)C)NC(=O)C(C)(C)NC(=O)[C@H](Cc2c[nH]c3ccccc23)NC(=O)[C@H](CO)NC(=O)C(C)(C)NC1=O [Example 314] (cyclo([Bip(4'-COOH)][4Pal][Phe(4-COOH)]G[Pro(cis-4-F)][Trp(βS-Me,4-F)][Aib]SW[Aib][X34]Q[Dab]G[dPro(4R-Bzl(4-F))]))",0.02
6,"CC(=O)NCCOc1ccc(C[C@@H]2NC(=O)[C@H]3C[C@@H](Cc4ccncc4)CN3C(=O)CNC(=O)[C@H](CCN)NC(=O)[C@H](CCC(N)=O)NC(=O)[C@H](Cc3cc(C)on3)NC(=O)C(C)(C)NC(=O)[C@H](Cc3c[nH]c4ccccc34)NC(=O)[C@H](CCC(=O)O)NC(=O)C(C)(C)NC(=O)[C@H]([C@@H](C)c3c[nH]c4cccc(F)c34)NC(=O)[C@@H]3C[C@H](F)CN3C(=O)CNC(=O)[C@H](Cc3ccc(C(=O)O)cc3)NC(=O)[C@H](Cc3ccncc3)NC2=O)cc1 [Example 315] (cyclo([AEF](Ac)[4Pal][Phe(4-COOH)]G[Pro(cis-4-F)][Trp(βS-Me,4-F)][Aib]EW[Aib][X45]Q[Dab]G[dPro(4R-(4-pyridylmethyl))]))",0.018
7,"CC(=O)NCCOc1ccc(C[C@@H]2NC(=O)[C@H]3C[C@@H](Cc4ccncc4)CN3C(=O)CNC(=O)[C@H](CCN)NC(=O)[C@H](CCC(N)=O)NC(=O)[C@H](Cc3ncco3)NC(=O)C(C)(C)NC(=O)[C@H](Cc3c[nH]c4ccccc34)NC(=O)[C@H](CCC(=O)O)NC(=O)C(C)(C)NC(=O)[C@H]([C@@H](C)c3c[nH]c4cccc(F)c34)NC(=O)[C@@H]3C[C@H](F)CN3C(=O)CNC(=O)[C@H](Cc3ccc(C(=O)O)cc3)NC(=O)[C@H](Cc3ccncc3)NC2=O)cc1 [Example 316] (cyclo([AEF](Ac)[4Pal][Phe(4-COOH)]G[Pro(cis-4-F)][Trp(βS-Me,4-F)][Aib]EW[Aib][X38]Q[Dab]G[dPro(4R-(4-pyridylmethyl))]))",0.02
8,"CC(=O)NCCOc1ccc(C[C@@H]2NC(=O)[C@H]3C[C@@H](Cc4ccncc4)CN3C(=O)CNC(=O)[C@H](CCN)NC(=O)[C@H](CCC(N)=O)NC(=O)[C@H](Cc3c[nH]cn3)NC(=O)C(C)(C)NC(=O)[C@H](Cc3c[nH]c4ccccc34)NC(=O)[C@H](CCC(=O)O)NC(=O)C(C)(C)NC(=O)[C@H]([C@@H](C)c3c[nH]c4cccc(F)c34)NC(=O)[C@@H]3C[C@H](F)CN3C(=O)CNC(=O)[C@H](Cc3ccc(C(=O)O)cc3)NC(=O)[C@H](Cc3ccncc3)NC2=O)cc1 [Example 317] (cyclo([AEF](Ac)[4Pal][Phe(4-COOH)]G[Pro(cis-4-F)][Trp(βS-Me,4-F)][Aib]EW[Aib]HQ[Dab]G[dPro(4R-(4-pyridylmethyl))]))",0.015
9,"CC(=O)NCCOc1ccc(C[C@@H]2NC(=O)[C@H]3C[C@@H](Cc4ccncc4)CN3C(=O)CNC(=O)[C@H](CCN)NC(=O)[C@H](CCC(N)=O)NC(=O)[C@H](CCc3ccncc3)NC(=O)C(C)(C)NC(=O)[C@H](Cc3c[nH]c4ccccc34)NC(=O)[C@H](CCC(=O)O)NC(=O)C(C)(C)NC(=O)[C@H]([C@@H](C)c3c[nH]c4cccc(F)c34)NC(=O)[C@@H]3C[C@H](F)CN3C(=O)CNC(=O)[C@H](Cc3ccc(C(=O)O)cc3)NC(=O)[C@H](Cc3ccncc3)NC2=O)cc1 [Example 318] (cyclo([AEF](Ac)[4Pal][Phe(4-COOH)]G[Pro(cis-4-F)][Trp(βS-Me,4-F)][Aib]EW[Aib][h4Pal]Q[Dab]G[dPro(4R-(4-pyridylmethyl))]))",0.025
10,"C[C@@H](c1c[nH]c2cccc(F)c12)[C@@H]1NC(=O)[C@@H]2C[C@H](F)CN2C(=O)CNC(=O)[C@H](Cc2ccc(C(=O)O)cc2)NC(=O)[C@H](Cc2ccncc2)NC(=O)[C@H](Cc2ccc(-c3ccc(C(=O)O)cc3)cc2)NC(=O)[C@H]2C[C@@H](Cc3ccc(F)cc3)CN2C(=O)CNC(=O)[C@H](CCN)NC(=O)[C@H](CCC(N)=O)NC(=O)[C@H](CN2CCOCC2)NC(=O)[C@@](C)(CC(=O)O)NC(=O)[C@H](Cc2c[nH]c3ccccc23)NC(=O)[C@H](CO)NC(=O)C(C)(C)NC1=O [Example 319] (cyclo([Bip(4'-COOH)][4Pal][Phe(4-COOH)]G[Pro(cis-4-F)][Trp(βS-Me,4-F)][Aib]SW[d(αMeD)][Ala(morpholin-4-yl)]Q[Dab]G[dPro(4R-Bzl(4-F))]))",0.017
